One assay concerns the target T1, VCB (Homo sapiens, UniProt P40337).
T1 construct: made in house
The assay is described as follows: AlphaLISA proximity assay of ternary complex formation. Type of assay: binding. The conditions noted are these: biotinylated VCB 20 nM, His6-VCB 20 nM, compound 0.5–200 nM. As to the method: Biotinylation of VCB. The VCB complex was mixed with EZ-link NHS-PEG4-biotin (Thermo Scientific) in a 1:1 molar ratio and incubated at room temperature for 1 h. The reaction was quenched using 1 M Tris-HCl, pH 7.5, and unreacted NHS-biotin was removed with a PD-10 MiniTrap desalting column (GE Healthcare) equilibrated with 20 mM HEPES, pH 7.5, 150 mM NaCl and 1 mM DTT.
AlphaLISA assay. All assays were performed at room temperature in 384-well plates with a final assay volume of 25 µL per well; plates were sealed with transparent film between addition of reagents. All reagents were prepared as 5× stocks diluted in 50 mM HEPES, pH 7.5, 100 mM NaCl, 0.1% (w/v) bovine serum albumin and 0.02% (w/v) 3-[(cholamidopropyl)dimethylammonio]-1-propanesulfonate (CHAPS). Biotinylated VCB (20 nM final) and His6-VCB (20 nM final) were incubated with a range of Homo-PROTAC concentrations (0.5–200 nM; three-in-five serial dilution) for 1 h. Anti-His acceptor beads (PerkinElmer, 10 µg ml^−1 final) were added and plates were incubated for another hour. Streptavidin-coated donor beads (PerkinElmer, 10 µg ml^−1 final) were added and plates were incubated for a final 1 h. Plates were read on a PHERAstar FS (BMG Labtech) using an optic module with an excitation wavelength of 680 nm and emission wavelength of 615 nm. Intensity values were plotted against PROTAC concentration on a log10 scale.
(In general: Bead proximity is the source of the signal in Alpha formats.)

The subject of the next assay is Dermcidin (DCD). The assay is described as follows: TMT MS proteomics in HeLa cells, DCD abundance. It is filed as cell-based, Homo sapiens. Particulars: 1 µM, 10 h, two replicates. The protocol: MS proteomics. Sample preparation. HeLa cells were seeded at 5 × 10^6 on a 10 cm plate 16 h before treatment. […] Cells were incubated at 37 °C and 5% CO2 for 10 h before harvesting. Cells were placed on ice and medium was removed and cells were washed twice with cold PBS. Cells were lysed in 0.5 ml of 100 mM Tris pH 8.0, 4% (w/v) SDS supplemented with protease inhibitor cocktail (Roche). The lysate was pulse sonicated briefly and then centrifuged at 17,000 × g for 15 min at 4 °C. The supernatant fraction of cell extract was snap-frozen in liquid nitrogen and stored in −80 °C freezer. Further sample processing, digestion, desalting, labeling and fractionation were performed as previously described.
nLC-MS/MS analysis. The TMT 10plex fractions were first analyzed as previously described. Briefly, the TMT 10plex fractions were analyzed sequentially on a Q Exactive HF Hybrid Quadrupole-Orbitrap Mass Spectrometer (Thermo Scientific) coupled to an UltiMate 3000 RSLCnano UHPLC system (Thermo Scientific) and EasySpray column (75 μm × 50 cm, PepMap RSLC C18 column, 2 μm, 100 Å, Thermo Scientific). The MS2 isolation window was set to 0.4 Da and the resolution set at 120,000. MS2 resolution was set at 60,000. The AGC targets for MS1 and MS2 were set at 3e^6 ions and 1e5 ions, respectively. The normalized collision energy was set at 32%. […] After the first analysis, the TMT labeled fractions were re-analyzed on the Q-Exactive HF using the same instrument settings and a target list generated from a theoretical trypsin digest of VHL. […] After the second analysis, two fractions were further analyzed using a targeted SIM/ddMS2 method on the Q-Exactive HF. […]
Peptide and protein identification. All the raw MS data files from the three analyses were merged and searched against the Uniprot-sprot-Trembl-Human-Canonical database by Maxquant software 1.5.3.30 for protein identification and TMT reporter ion quantitation. […] Quantified proteins were filtered if the absolute fold-change difference between the two DMSO replicates was ≥ 1.5.

T1 sequence (P40337 54-213): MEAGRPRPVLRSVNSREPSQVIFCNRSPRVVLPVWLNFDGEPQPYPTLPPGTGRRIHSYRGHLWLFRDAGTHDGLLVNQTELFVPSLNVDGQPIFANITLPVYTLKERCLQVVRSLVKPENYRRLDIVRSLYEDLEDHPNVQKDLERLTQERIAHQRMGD
T1 sequence (Q15369 17-112 partner limits assumed): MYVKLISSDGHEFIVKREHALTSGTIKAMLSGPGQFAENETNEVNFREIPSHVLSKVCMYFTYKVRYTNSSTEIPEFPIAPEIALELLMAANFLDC
T1 sequence (Q15370 1-104 partner limits assumed): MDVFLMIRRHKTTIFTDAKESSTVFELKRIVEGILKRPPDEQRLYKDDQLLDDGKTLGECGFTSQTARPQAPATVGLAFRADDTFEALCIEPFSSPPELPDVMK

As for `Cc1ncsc1-c1ccc(CNC(=O)[C@@H]2C[C@@H](O)CN2C(=O)[C@@H](NC(=O)COCCOCCOCCOCC(=O)N[C@H](C(=O)N2C[C@H](O)C[C@H]2C(=O)NCc2ccc(-c3scnc3C)cc2)C(C)(C)C)C(C)(C)C)cc1` [CM09, N ^1 ,N ^14-bis((S)-1-((2S,4R)-4-hydroxy-2-((4-(4-methylthiazol-5-yl)benzyl)carbamoyl)pyrrolidin-1-yl)-3,3-dimethyl-1-oxobutan-2-yl)-3,6,9,12-tetraoxatetradecanediamide], the “ternary complex formation, AlphaLISA intensity” value (“ternary complex formation” below) on VCB was “negligible levels of complex formation”. In addition, the “average normalized ratio to DMSO, DCD” value with Dermcidin (DCD) is given as 1.41.

Consider `Cc1ncsc1-c1ccc(CNC(=O)[C@@H]2C[C@@H](O)CN2C(=O)[C@@H](NC(=O)COCCOCCOCCOCCOCC(=O)N[C@H](C(=O)N2C[C@H](O)C[C@H]2C(=O)NCc2ccc(-c3scnc3C)cc2)C(C)(C)C)C(C)(C)C)cc1` [CM10, N ^1 ,N ^17-bis((S)-1-((2S,4R)-4-hydroxy-2-((4-(4-methylthiazol-5-yl)benzyl)carbamoyl)pyrrolidin-1-yl)-3,3-dimethyl-1-oxobutan-2-yl)-3,6,9,12,15-pentaoxaheptadecanediamide], for which the “ternary complex formation” value on VCB is “negligible levels of complex formation”. The “average normalized ratio to DMSO, DCD” value in the assay with Dermcidin (DCD) was 1.33.

For the compound `Cc1ncsc1-c1ccc(CNC(=O)[C@@H]2C[C@@H](O)CN2C(=O)[C@@H](NC(=O)COCCOCCOCCOCCOCCOCC(=O)N[C@H](C(=O)N2C[C@H](O)C[C@H]2C(=O)NCc2ccc(-c3scnc3C)cc2)C(C)(C)C)C(C)(C)C)cc1` [CM11, N ^1 ,N ^20-bis((S)-1-((2S,4R)-4-hydroxy-2-((4-(4-methylthiazol-5-yl)benzyl)carbamoyl)pyrrolidin-1-yl)-3,3-dimethyl-1-oxobutan-2-yl)-3,6,9,12,15,18-hexaoxaicosanediamide], on VCB, the “ternary complex formation” value is “highest intensity signal”. For the same compound, the “average normalized ratio to DMSO, DCD” value in the assay with Dermcidin (DCD) was 0.87.

The record behind these values is publication PMC5635026, “Homo-PROTACs: bivalent small-molecule dimerizers of the VHL E3 ubiquitin ligase to induce self-degradation” (Nature Communications, 2017).
